Biological target: T1, Recombinant human renin (Homo sapiens, UniProt P00797)
T1 construct: made in house; host or cells: Chinese Hamster Ovary cells
T1 sequence (P00797 67-406): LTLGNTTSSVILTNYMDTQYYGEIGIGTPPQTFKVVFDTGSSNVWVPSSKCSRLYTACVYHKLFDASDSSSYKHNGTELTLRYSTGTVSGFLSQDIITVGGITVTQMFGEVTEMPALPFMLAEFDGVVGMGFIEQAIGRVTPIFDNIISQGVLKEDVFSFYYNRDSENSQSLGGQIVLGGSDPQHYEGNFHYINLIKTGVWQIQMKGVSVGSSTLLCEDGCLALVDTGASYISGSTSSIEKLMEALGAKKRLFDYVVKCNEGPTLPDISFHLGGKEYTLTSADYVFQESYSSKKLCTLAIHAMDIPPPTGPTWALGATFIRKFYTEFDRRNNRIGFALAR
Experiment: FRET assay of renin inhibition
Format: biochemical
Procedure: Recombinant human renin (expressed in Chinese Hamster Ovary cells and purified using standard methods) at 4 nM concentration is incubated with test compound at various concentrations for 1 h at RT in 0.1 M Tris-HCl buffer, pH 7.4, containing 0.05 M NaCl, 0.5 mM EDTA and 0.05% CHAPS. Synthetic peptide substrate Arg-Glu(EDANS)-Ile-His-Pro-Phe-His-Leu-Val-Ile_His_Thr-Lys(DABCYL)-Arg9 is added to a final concentration of 2 μM and increase in fluorescence is recorded at an excitation wave-length of 340 nm and at an emission wave-length of 485 nm in a microplate spectro-fluorimeter. IC50 values are calculated from percentage of inhibition of renin activity as a function of test compound concentration (Fluorescence Resonance Energy Transfer, FRET, assay).

- IC50: ~0.3 nM
Structure (SMILES): COCCCOc1cc(C[C@@H](C[C@H](N)[C@@H](O)C[C@H](C(=O)N[C@@H](C)C2CCCCC2)C(C)C)C(C)C)ccc1OC [Example 29, (2S,4S,5S,7S)-5-Amino-4-hydroxy-2-isopropyl-7-[4-methoxy-3-(3-methoxy-propoxy)-benzyl]-8-methyl-nonanoic acid ((S)-1-cyclohexyl-ethyl)-amide]
